Each structure is given as a SMILES string.

In one test the target is CDK9/Cyclin T1 (Homo sapiens (Human), UniProt P50750). Description: CDK9 enzyme assay (LANCE ULight TR-FRET kinase assay). The conditions noted are these: 1000 μM ATP, 100 nM ULight MBP, kinase reaction 1 hour. Format: biochemical. How it is done: CDK9 enzyme activities were measured using LANCE ULight TR-FRET kinase assay reagents (PerkinElmer, Waltham, Mass.). Compounds were diluted in 100% DMSO then diluted with 1:10 in serine/threonine kinase assay buffer containing 20 mM HEPES, 10 mM MgCl2, […], and 0.0075% Triton X-100. Equal volume of the compound dilutions was added to a final reaction mixture containing LANCE detection buffer (PerkinElmer CR97-100), 100 nM ULight MBP (PerkinElmer TRF0109M), 1000 μM ATP, and CDK9/Cyclin T1 (Carna Biosciences 04-110). The kinase reaction was carried out for 1 hour before addition of stopping buffer to a final of 20 mM EDTA and 0.5 nM of LANCE Ultra Europium anti-phospho-MBP antibody (PerkinElmer TRF0201M) in LANCE detection buffer. The reaction was incubated for 1 hour and the signal was read in Envision in TR-FRET mode (excitation at 320 nm and emission at 615/665 nm).
In general terms: TR-FRET usually uses a lanthanide donor and a delayed reading to cut background.

A further test concerns H929 cells. The experiment in a line: Cell viability assay (Cell TiterGlo). The test is classed as cell-based. The conditions noted are these: Cell TiterGlo luminescence. The method, then: The cell viability assay was performed using H929 cells. Cells were seeded in 96-well plates at 10,000 cells/well and, after overnight incubation, treated with compounds in a dose response of 3-fold dilutions from 10 μM to 0.005 μM ([…], 0.1% final DMSO concentration). After 24 hours at 37° C., cell viability was measured using Cell TiterGlo reagent (Promega) with a luminescence reader.
(In general: In ATP-based viability assays light output follows the ATP content of the culture.)

[1] abbreviates: Homo sapiens, NCI-H929, 24 hours at 37° C.

Sequence of CDK9/Cyclin T1 (P50750 whole entry): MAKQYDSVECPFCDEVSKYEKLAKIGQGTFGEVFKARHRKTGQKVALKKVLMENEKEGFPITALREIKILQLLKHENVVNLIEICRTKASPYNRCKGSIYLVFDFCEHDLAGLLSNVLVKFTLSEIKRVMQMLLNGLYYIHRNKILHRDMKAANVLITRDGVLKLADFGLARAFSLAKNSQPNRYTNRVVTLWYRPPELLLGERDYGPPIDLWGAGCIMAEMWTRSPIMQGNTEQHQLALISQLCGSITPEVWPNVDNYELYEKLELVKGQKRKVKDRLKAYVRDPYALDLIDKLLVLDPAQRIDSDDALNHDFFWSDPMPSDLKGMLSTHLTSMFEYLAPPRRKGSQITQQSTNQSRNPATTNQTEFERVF
Sequence of CDK9/Cyclin T1 (O60563 whole entry partner): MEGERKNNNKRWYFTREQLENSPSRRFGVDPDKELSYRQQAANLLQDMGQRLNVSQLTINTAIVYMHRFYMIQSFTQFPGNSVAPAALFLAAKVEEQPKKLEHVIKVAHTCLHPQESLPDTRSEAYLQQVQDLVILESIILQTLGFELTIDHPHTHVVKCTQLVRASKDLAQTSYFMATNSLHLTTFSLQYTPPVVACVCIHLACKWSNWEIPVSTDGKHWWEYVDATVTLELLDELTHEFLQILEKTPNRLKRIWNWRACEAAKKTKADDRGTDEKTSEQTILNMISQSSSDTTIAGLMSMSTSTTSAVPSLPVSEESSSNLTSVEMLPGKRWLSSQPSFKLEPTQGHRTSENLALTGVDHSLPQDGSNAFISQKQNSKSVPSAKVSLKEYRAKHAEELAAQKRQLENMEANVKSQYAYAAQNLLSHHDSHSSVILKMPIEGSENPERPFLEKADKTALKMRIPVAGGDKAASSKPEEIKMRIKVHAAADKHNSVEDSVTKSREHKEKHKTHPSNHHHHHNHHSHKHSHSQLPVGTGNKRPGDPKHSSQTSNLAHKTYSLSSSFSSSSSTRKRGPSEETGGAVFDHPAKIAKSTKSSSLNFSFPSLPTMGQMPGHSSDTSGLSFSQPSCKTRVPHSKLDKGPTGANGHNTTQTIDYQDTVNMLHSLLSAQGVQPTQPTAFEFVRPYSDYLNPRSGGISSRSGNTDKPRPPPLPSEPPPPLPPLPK

As a reminder, the IC50 is the concentration needed to halve the response being measured. High values mean lower potency, low ones higher potency. Take `CN(CCO)C(=O)CN1CCC(c2[nH]c3nccc4c3c2CN(C)c2ccc(F)cc2-4)CC1` [Example 27, 2-[4-(10-fluoro-7-methyl-6,7-dihydro-4H-3,4,7-triazadibenzo[cd,f]azulen-5-yl)piperidin-1-yl]-N-(2-hydroxyethyl)-N-methylacetamide]: the values for the IC50 at CDK9/Cyclin T1 and in the test with H929 cells (setting [1]) were 91 nM and 210 nM, respectively.

Take `CN1Cc2c(C3=CCN[C@@H](CO)C3)[nH]c3nccc(c23)-c2cc(F)ccc21` [Example 156, [(2R)-4-(10-fluoro-7-methyl-6,7-dihydro-4H-3,4,7-triazadibenzo[cd,f]azulen-5-yl)-1,2,3,6-tetrahydropyridin-2-yl]methanol]: the concentration for half-maximal inhibition (IC50) on CDK9/Cyclin T1 turned out to be 30 nM; with H929 cells (setting [1]) it was 22 nM.

Take `CN1Cc2c(C3=CC4CCCC(C3)N4S(C)(=O)=O)[nH]c3nccc(c23)-c2cc(F)ccc21` (stereo not shown) [Example 99, 10-fluoro-7-methyl-5-[9-(methylsulfonyl)-9-azabicyclo[3.3.1]non-2-en-3-yl]-6,7-dihydro-4H-3,4,7-triazadibenzo[cd,f]azulene]: the half-inhibitory concentration (IC50) on CDK9/Cyclin T1 came out at 400 nM; in the test with H929 cells (setting [1]), 2600 nM.

For `CN(C)C(=O)CN1CC=C(c2[nH]c3ncc(F)c4c3c2CN(C)c2ccc(F)cc2-4)CC1` [Example 66, 2-[4-(1,10-difluoro-7-methyl-6,7-dihydro-4H-3,4,7-triazadibenzo[cd,f]azulen-5-yl)-3,6-dihydropyridin-1(2H)-yl]-N,N-dimethylacetamide], the half-inhibitory concentration (IC50) on CDK9/Cyclin T1 stood at 44 nM; in the test on H929 cells (setting [1]), 10 nM.

Take `CC[C@H]1c2c(C3=CCN([C@H]4C[C@@H](C(=O)O)C4)CC3)[nH]c3nccc(c23)-c2cc(F)ccc2N1C` [Example 187, cis-3-{4-[(6S)-6-ethyl-10-fluoro-7-methyl-6,7-dihydro-4H-3,4,7-triazadibenzo[cd,f]azulen-5-yl]-3,6-dihydropyridin-1(2H)-yl}cyclobutanecarboxylic acid]: the IC50 was 110 nM against CDK9/Cyclin T1 and 15 nM in the test with H929 cells (setting [1]).

Regarding `CN1CCc2c(C3=CCN(S(C)(=O)=O)CC3)[nH]c3nccc(c23)-c2cc(F)ccc21` [Example 128, 8-fluoro-5-methyl-2-[1-(methylsulfonyl)-1,2,3,6-tetrahydropyridin-4-yl]-1,3,4,5-tetrahydro-1,5,12-triazabenzo[4,5]cycloocta[1,2,3-cd]indene], the 50% inhibitory concentration (IC50) stood at 78 nM at CDK9/Cyclin T1 and 150 nM in the test on H929 cells (24 hours at 37° C.).

As for `CN1Cc2c(C3=CCNCC3)[nH]c3nccc(c23)-c2cccnc21` [Example 135, 7-methyl-5-(1,2,3,6-tetrahydropyridin-4-yl)-6,7-dihydro-4H-3,4,7,8-tetraazadibenzo[cd,f]azulene], the results for the IC50 on CDK9/Cyclin T1 and in the test on H929 cells (setting [1]) were 63 nM and 76 nM, respectively.

On to `CN(CCO)C(=O)CN1CC=C(c2[nH]c3nccc4c3c2CN(C)c2ccc(F)cc2-4)C(C)(C)C1` [Example 116, 2-[4-(10-fluoro-7-methyl-6,7-dihydro-4H-3,4,7-triazadibenzo[cd,f]azulen-5-yl)-3,3-dimethyl-3,6-dihydropyridin-1(2H)-yl]-N-(2-hydroxyethyl)-N-methylacetamide], for which the IC50 on CDK9/Cyclin T1 is 890 nM; with H929 cells (setting [1]) it was 1700 nM.

Regarding `CN1Cc2c(C3=CCC(N[C@@H](Cc4ccc(O)cc4)C(=O)O)CC3)[nH]c3nccc(c23)-c2cc(F)ccc21` (stereo partly drawn) [Example 40, N-[4-(10-fluoro-7-methyl-6,7-dihydro-4H-3,4,7-triazadibenzo[cd,f]azulen-5-yl)cyclohex-3-en-1-yl]-L-tyrosine], the IC50 at CDK9/Cyclin T1 came to 81 nM; in the test on H929 cells (setting [1]), 320 nM.

As to `C[C@H](NC1CC=C(c2[nH]c3nccc4c3c2CN(C)c2ccc(F)cc2-4)CC1)C(=O)O` (stereo partly drawn) [Example 30, N-[4-(10-fluoro-7-methyl-6,7-dihydro-4H-3,4,7-triazadibenzo[cd,f]azulen-5-yl)cyclohex-3-en-1-yl]-L-alanine], the half-inhibitory concentration (IC50) against CDK9/Cyclin T1 and in the test on H929 cells (setting [1]) was 100 nM in each case.

Turning to `CN(C)C(=O)CN1C2C=C(c3[nH]c4nccc5c4c3CN(C)c3ccc(F)cc3-5)CC1CCC2` (stereo not shown) [Example 101, 2-[3-(10-fluoro-7-methyl-6,7-dihydro-4H-3,4,7-triazadibenzo[cd,f]azulen-5-yl)-9-azabicyclo[3.3.1]non-2-en-9-yl]-N,N-dimethylacetamide], the values for the concentration for half-maximal inhibition (IC50) against CDK9/Cyclin T1 and in the test on H929 cells (setting [1]) were 110 nM and 91 nM, respectively.

In the case of `CN1Cc2c(C3=C[C@H]4CC[C@@H](C3)N4CC(=O)N(C)C3CC(O)C3)[nH]c3nccc(c23)-c2cc(F)ccc21` (stereo partly drawn) [Example 98, 2-[(1R,5S)-3-(10-fluoro-7-methyl-6,7-dihydro-4H-3,4,7-triazadibenzo[cd,f]azulen-5-yl)-8-azabicyclo[3.2.1]oct-2-en-8-yl]-N-(3-hydroxycyclobutyl)-N-methylacetamide], the half-maximal inhibitory concentration (IC50) against CDK9/Cyclin T1 is 73 nM; in the test on H929 cells (setting [1]), 150 nM.

Consider `CN1Cc2c(C3=CCC(NCC(=O)O)CC3)[nH]c3nccc(c23)-c2cc(F)ccc21` (stereo not shown) [Example 31, N-[4-(10-fluoro-7-methyl-6,7-dihydro-4H-3,4,7-triazadibenzo[cd,f]azulen-5-yl)cyclohex-3-en-1-yl]glycine], for which the values for the IC50 at CDK9/Cyclin T1 and in the test on H929 cells (setting [1]) were 86 nM and 70 nM, respectively.

As for `CN1Cc2c(C3=CCN(CC(=O)N4CC(CO)C4)CC3)[nH]c3ncc(F)c(c23)-c2cc(F)ccc21` [Example 74, 2-[4-(1,10-difluoro-7-methyl-6,7-dihydro-4H-3,4,7-triazadibenzo[cd,f]azulen-5-yl)-3,6-dihydropyridin-1(2H)-yl]-1-[3-(hydroxymethyl)azetidin-1-yl]ethanone], the results for the concentration for half-maximal inhibition (IC50) at CDK9/Cyclin T1 and in the test on H929 cells (setting [1]) were 89 nM and 21 nM, respectively.

For `CCC[C@H](NC1CC=C(c2[nH]c3nccc4c3c2CN(C)c2ccc(F)cc2-4)CC1)C(=O)O` (stereo partly drawn) [Example 39, N-[4-(10-fluoro-7-methyl-6,7-dihydro-4H-3,4,7-triazadibenzo[cd,f]azulen-5-yl)cyclohex-3-en-1-yl]-L-norvaline], the IC50 is 130 nM against CDK9/Cyclin T1 and 99 nM in the test with H929 cells (setting [1]).

In the case of `CN1Cc2c(C3=CCN(CCS(N)(=O)=O)CC3)[nH]c3nccc(c23)-c2cc(F)ccc21` [Example 179, 2-[4-(10-fluoro-7-methyl-6,7-dihydro-4H-3,4,7-triazadibenzo[cd,f]azulen-5-yl)-3,6-dihydropyridin-1(2H)-yl]ethanesulfonamide], the half-inhibitory concentration (IC50) was found to be 24 nM against CDK9/Cyclin T1 and 64 nM in the test on H929 cells (setting [1]).

Consider `OCC(O)CN1CC=C(c2[nH]c3nccc4c3c2COc2ccc(F)cc2-4)CC1` (stereo not shown) [Example 164, 3-[4-(10-fluoro-4,6-dihydro-7-oxa-3,4-diazadibenzo[cd,f]azulen-5-yl)-3,6-dihydropyridin-1(2H)-yl]propane-1,2-diol], for which the figures for the IC50 against CDK9/Cyclin T1 and in the test with H929 cells (setting [1]) were 130 nM and 270 nM, respectively.

Regarding `CCC1c2c(C3=CCN(S(C)(=O)=O)CC3)[nH]c3nccc(c23)-c2cc(F)ccc2N1C` (stereo not shown) [Example 11, 6-ethyl-10-fluoro-7-methyl-5-[1-(methylsulfonyl)-1,2,3,6-tetrahydropyridin-4-yl]-6,7-dihydro-4H-3,4,7-triazadibenzo[cd,f]azulene], the IC50 at CDK9/Cyclin T1 was found to be 120 nM; in the test on H929 cells (setting [1]), 32 nM.

As for `Fc1ccc2c(c1)-c1ccnc3[nH]c(C4=CCNCC4)c(c13)CO2` [Example 14, 10-fluoro-5-(1,2,3,6-tetrahydropyridin-4-yl)-4,6-dihydro-7-oxa-3,4-diazadibenzo[cd,f]azulene], the IC50 is 20 nM against CDK9/Cyclin T1 and 180 nM in the test with H929 cells (setting [1]).

Turning to `CN1Cc2c(C3=CCN([C@H]4CC[C@H](CC(=O)O)CC4)CC3)[nH]c3ncc(F)c(c23)-c2cc(F)ccc21` [Example 167, {trans-4-[4-(1,10-difluoro-7-methyl-6,7-dihydro-4H-3,4,7-triazadibenzo[cd,f]azulen-5-yl)-3,6-dihydropyridin-1(2H)-yl]cyclohexyl}acetic acid], the half-maximal inhibitory concentration (IC50) against CDK9/Cyclin T1 was 67 nM; in the test on H929 cells (setting [1]), 10 nM.

Take `CC[C@H]1c2c(C3=CCN([C@H]4C[C@@H](C(=O)OC)C4)CC3)[nH]c3nccc(c23)-c2cc(F)ccc2N1C` [Example 186, methyl cis-3-{4-[(6S)-6-ethyl-10-fluoro-7-methyl-6,7-dihydro-4H-3,4,7-triazadibenzo[cd,f]azulen-5-yl]-3,6-dihydropyridin-1(2H)-yl}cyclobutanecarboxylate]: the IC50 against CDK9/Cyclin T1 came to 64 nM; in the test on H929 cells (setting [1]) it was 13 nM.

Take `CN1Cc2c(C3=CCN(CC(=O)N4CCC[C@H]4CO)CC3)[nH]c3ncc(F)c(c23)-c2cc(F)ccc21` [Example 70, 2-[4-(1,10-difluoro-7-methyl-6,7-dihydro-4H-3,4,7-triazadibenzo[cd,f]azulen-5-yl)-3,6-dihydropyridin-1(2H)-yl]-1-[(2S)-2-(hydroxymethyl)pyrrolidin-1-yl]ethanone]: the IC50 against CDK9/Cyclin T1 was 86 nM; in the test on H929 cells (setting [1]), 5 nM.

In the case of `CN1Cc2c(-c3ccc(S(C)(=O)=O)nc3)[nH]c3nccc(c23)-c2cc(F)ccc21` [Example 45, 10-fluoro-7-methyl-5-[6-(methylsulfonyl)pyridin-3-yl]-6,7-dihydro-4H-3,4,7-triazadibenzo[cd,f]azulene], the IC50 worked out at 110 nM on CDK9/Cyclin T1 and 830 nM in the test with H929 cells (setting [1]).

The record behind these values is patent publication US9328112B2, “Tetracyclic CDK9 kinase inhibitors” (AbbVie Inc., priority 2014, dated 2016).
